Read-outs that look alike come from different tables or passages of the source.

One data set has as its system p-ERK in KYSE-520 cells. The experiment in a line: Determination of p-ERK in KYSE-520 cells (HTRF). Particulars: Homo sapiens. The data set is classed as cell-based. A general note: TR-FRET usually uses a lanthanide donor and a delayed reading to cut background.
The target in another data set is T1, hERG potassium channel (Homo sapiens, UniProt Q12809).
T1 construct: host or cells: CHO hERG cells
T1 sequence (Q12809 whole entry): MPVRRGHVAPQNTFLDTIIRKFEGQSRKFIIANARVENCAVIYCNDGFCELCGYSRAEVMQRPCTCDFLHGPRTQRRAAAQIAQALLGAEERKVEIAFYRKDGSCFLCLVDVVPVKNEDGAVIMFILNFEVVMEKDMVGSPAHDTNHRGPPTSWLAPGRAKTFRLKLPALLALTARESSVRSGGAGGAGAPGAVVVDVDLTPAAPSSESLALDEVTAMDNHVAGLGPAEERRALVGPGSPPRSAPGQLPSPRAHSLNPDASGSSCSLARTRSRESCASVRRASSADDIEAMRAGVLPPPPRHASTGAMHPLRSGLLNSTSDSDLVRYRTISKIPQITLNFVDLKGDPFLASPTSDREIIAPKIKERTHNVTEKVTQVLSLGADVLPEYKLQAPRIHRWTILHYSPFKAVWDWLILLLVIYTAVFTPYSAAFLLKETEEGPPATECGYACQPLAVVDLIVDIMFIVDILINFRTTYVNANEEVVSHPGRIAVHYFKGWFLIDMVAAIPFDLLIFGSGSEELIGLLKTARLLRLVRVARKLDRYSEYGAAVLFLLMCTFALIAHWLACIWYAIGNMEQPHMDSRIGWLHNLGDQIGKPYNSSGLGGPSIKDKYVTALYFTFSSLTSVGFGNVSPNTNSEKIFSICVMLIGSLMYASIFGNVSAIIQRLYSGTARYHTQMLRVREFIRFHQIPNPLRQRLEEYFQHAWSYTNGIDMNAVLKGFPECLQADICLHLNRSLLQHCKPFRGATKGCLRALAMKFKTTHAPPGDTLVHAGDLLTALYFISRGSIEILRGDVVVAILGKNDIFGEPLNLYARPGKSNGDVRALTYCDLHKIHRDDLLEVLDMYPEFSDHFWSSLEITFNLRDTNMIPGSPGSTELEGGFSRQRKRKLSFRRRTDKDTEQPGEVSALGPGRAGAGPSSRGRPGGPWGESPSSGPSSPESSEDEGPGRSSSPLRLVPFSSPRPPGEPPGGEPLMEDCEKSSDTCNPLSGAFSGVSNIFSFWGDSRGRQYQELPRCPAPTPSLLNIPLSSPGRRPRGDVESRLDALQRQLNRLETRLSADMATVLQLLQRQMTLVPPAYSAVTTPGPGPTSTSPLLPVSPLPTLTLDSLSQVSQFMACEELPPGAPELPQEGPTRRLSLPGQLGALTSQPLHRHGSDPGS
The data set can be described thus: hERG current inhibition experiment (manual patch clamp, CHO hERG cells). The data set is classed as cell-based. Particulars: whole-cell patch clamp, tail current. Here is the method: In this experiment, whole-cell current recording was performed using a manual patch clamp system (HEKA EPC-10 signal amplification and digital conversion system, purchased from HEKA Electronic, Germany). The round glass slide of which surface CHO hERG cells (provided by Sophion Bioscience Inc., Denmark, the cell generation number was P21) were grown on was placed in an electrophysiological recording slot under an inverted microscope. The recording slot was continuously perfused with extracellular fluid (approximately 1 mL per minute). Conventional whole-cell patch clamp current recording technique was used in the experiment. The experiments were performed at normal room temperature (˜25° C.). The cells were clamped at a voltage of −80 mV. Cell patch clamp voltage was depolarized to +20 mV to activate hERG potassium channel, and to −50 mV after 5 seconds to eliminate inactivation and generate tail currents. The tail current peak was used as a value of hERG current. When the hERG potassium current recorded in the above steps became steady under continuous perfusion of the extracellular fluid in the recording slot, the drug to be tested could be added to the perfusion, until the inhibition effect of the drug on hERG current reached a steady state. Generally, the overlapping of most recent three consecutive current recording lines was used as a criterion to determine whether the state was stable. After reaching the steady state, the recording slot was perfused with extracellular fluid until the hERG current returned to the value before the drug adding. The test data was analyzed by HEKA Patchmaster (V2x73.2), Microsoft Excel and the data analysis software provided by Graphpad Prism 5.0.
(Block of hERG is tested as a sign of cardiac risk.)

The next data set concerns KYSE-520 cells. The data set can be described thus: KYSE-520 cell proliferation experiment (CellTiter-Glo, 7 days). The format is cell-based. Particulars: Homo sapiens. Background: Cellular ATP, detected with luciferase, serves as a proxy for viable cell number.
A short description of data set [1]: Pharmacokinetics assay in rats. The format is in vivo, SD rats. Particulars: rat; for AUC / clearance / half-life / bioavailability / Cmax: male, SD, plasma; for AUC: read-out: Area under curve AUC; for clearance: read-out: Clearance CL_obs; for half-life: read-out: Half-life T1/2 (converted); for bioavailability: PO 5 mg/kg vs IV 1 mg/kg, read-out: Bioavailability F; for Cmax: read-out: Maximum plasma concentration Cmax. Here is the method: Rats were used as test animals. The drug concentration in plasma at different time points was determined by LC/MS/MS method after intravenous administration or intragastrical administration of the compound of the present invention to rats. The pharmacokinetic behavior of the compound of the present invention was studied and evaluated in rats.
The atropisomer with a RT of 1.495 minutes in Examples 3 and 4, compounds of Example 17, Example 41 and Example 43.
Healthy male SD rats (6-8 weeks old), 3 rats per group.
Intravenous administration: A certain amount of the test compound was weighed, to which 10% by volume of N,N-dimethylacetamide, 33% by volume of triethylene glycol and 57% by volume of water were added to prepare a 1 mg/mL colorless, clear and transparent solution;
Intragastrical administration: A certain amount of the test compound was weighed, to which 0.5% by mass of hypromellose, 0.1% by volume of Tween 80 and 99.4% by volume of water were added to prepare a 1 mg/mL white suspension.
After an overnight fast, the SD rats were intravenously administered the test compound at an administration dose of 1 mg/kg, or intragastrically administered the test compound at an administration dose of 5 mg/kg.
The rats were intravenously administered the compound of the present invention. 0.2 ml of blood was taken from the jugular vein at 0.083, 0.25, 0.5, 1, 2, 4, 8 and 24 hours after the administration. The samples were placed in tubes containing EDTA-K2, and centrifuged at 4000 rpm and 4° C. for 5 minutes to separate the blood plasma. The plasma samples were stored at −75° C.
Or, the rats were intragastrically administered the compound of the present invention. 0.2 ml of blood was taken from the jugular vein at 0.25, 0.5, 1, 2, 4, 8 and 24 hours after the administration. The samples were placed in tubes containing EDTA-K2, and centrifuged at 4000 rpm and 4° C. for 5 minutes to separate the blood plasma. The plasma samples were stored at −75° C.
The content of the test compound in the plasma of rat after intragastrical administration of the test compound at different concentrations was determined: 50 μL of rat plasma at each time after administration was taken, to which 200 μL of a solution (50 ng/mL) of internal standard dexamethasone in acetonitrile was added. The plasma was vortex-mixed for 30 seconds, and centrifuged at 4700 rpm and 4° C. for 15 minutes. The supernatant was taken from the plasma samples, and a three-fold dilution was carried out by adding water. 2.0 μL of the supernatant was used for LC/MS/MS analysis.

The compound `CNc1nccc(Sc2c(C)nc(N3CCC4(CC3)Cc3ncccc3[C@H]4N)n3ccnc23)c1Cl` [Example 41, (S)-1′-(8-((3-Chloro-2-(methylamino)pyridin-4-yl)thio)-7-methylimidazo[1,2-c]pyrimidin-5-yl)-5,7-dihydrospiro[cyclopenta[b]pyridine-6,4′-piperidin]-5-amine] displayed a half-inhibitory concentration (IC50) in the data set with p-ERK in KYSE-520 cells (2 hours) of 0.014 µM. On hERG potassium channel, this compound came in with a half-inhibitory concentration (IC50) of 10.2 µM. Further, the 50% inhibitory concentration (IC50) in the data set on KYSE-520 cells amounted to 0.0583 µM. Moreover, in data set [1] (IV 1 mg/kg), the exposure (AUC) came to 1.13 ± 0.21 µg·h/mL, the clearance was 0.876 ± 0.156 L/h/kg, the half-life was 5.33 ± 0.11 h and the “Apparent distribution volume Vss_obs” value amounted to 4.75 ± 0.72 L/kg. Moreover, the bioavailability in data set [1] came to 67.6 ± 10.9%. In data set [1] (PO 5 mg/kg), the exposure (AUC) was 3.88 ± 0.631 µg·h/mL, the half-life is 4.22 ± 0.11 h and the Cmax is 0.339 ± 0.088 µg/mL.
Consider `CNc1nccc(Sc2cnc(N3CCC4(CC3)Cc3ncccc3[C@H]4N)n3ccnc23)c1Cl` [Example 43, (S)-1′-(8-((3-Chloro-2-(methylamino)pyridin-4-yl)thio)imidazo[1,2-c]pyrimidin-5-yl)-5,7-dihydrospiro[cyclopenta[b]pyridine-6,4′-piperidin]-5-amine], for which the IC50 in the data set on p-ERK in KYSE-520 cells (KYSE-520, 2 h) turned out to be 0.0048 µM. Besides, the IC50 against hERG potassium channel stood at 10.3 µM. This compound registered an IC50 in the data set with KYSE-520 cells of 0.0304 µM. In data set [1] (IV 1 mg/kg), the AUC was 6.64 ± 1.36 µg·h/mL, the clearance stood at 0.151 ± 0.0312 L/h/kg, the half-life is 4.71 ± 0.27 h and the “Apparent distribution volume Vss_obs” value was determined as 0.765 ± 0.082 L/kg. Also, in data set [1], the bioavailability turned out to be 75.4 ± 7.5%. In data set [1] (PO 5 mg/kg), the AUC is 25.2 ± 2.5 µg·h/mL, the half-life is 4.17 ± 0.14 h and the Cmax is 2.51 ± 0.405 µg/mL.

For orientation: IC50 means the concentration at which inhibition is half-maximal. A lower IC50 goes with higher potency. As usually defined, the AUC is the area under the concentration-time curve, a measure of exposure. One may read the clearance as the volume of plasma or blood freed of the substance per unit of time. The term bioavailability denotes dose-corrected exposure relative to a reference, in per cent.

Source of the values: US20220073521A1, “PYRIMIDINE AND FIVE-MEMBERED NITROGEN HETEROCYCLE DERIVATIVE, PREPARATION METHOD THEREFOR, AND MEDICAL USES THEREOF” (Tuojie Biotech (Shanghai) Co., Ltd., priority 2018, published 2022).
